Values of other authors, collected in patent US11235084B2, “Embolic microspheres” (Varian Medical Systems, Inc., priority 2017, dated 2022).

In order of falling “reported pKa values at 25° C.” value:
1. O=S(=O)(O)CCCNC1CCCCC1 [CAPS, 3-(cyclohexylamino)-1-propanesulfonic acid]  10.5
2. O=S(=O)(O)CCNC1CCCCC1 [CHES, 2-(cyclohexylamino)-1-ethanesulfonic acid]  9.4
3. CC(C)(CO)NCC(O)CS(=O)(=O)O (centres unmarked) [AMPSO, N-(1,1-dimethyl-2-hydroxyethyl)-3-amino-2-hydroxypropanesulfonic acid]  9.1
4. NCC(=O)NCC(=O)O [glycylglycine]  8.3
5. CCN1CCOCC1 [N-ethylmorpholine]  7.8
